Assay [1] can be described thus: Bulk crystallization of L-cystine in the presence of additives (mass yield). The settings on record: for Yield (%) = (collected mass by filtration, >11 μm)/(total mass added) × 100%: 2 mg/L additive, 0.7 g/L L-cystine (pH 6.8), no additive 80, approximate error ±8%, Dihydrochloride. As for the experimental part: Alternately, the hexagonal crystals can be obtained by crystallization performed near neutral pH (Sa) The hexagonal form was crystallized from a supersaturated L-cystine solution prepared by adding 70 mg of L-cystine to 100 mL of deionized water (3 mM), and heating under reflux at 100° C. for 20 min with stirring to completely dissolve L-cystine. […] This concentration was used for bulk crystallization studies in the presence of additives so that a measurable amount of bulk crystals could be obtained in a reasonable time. The solution was then allowed to cool slowly with stirring for 75 min. 30 mL aliquots were transferred to separate glass containers, which were then sealed to prevent evaporation and exposure to airborne particulates and stored for 72 hours at room temperature without stirring. […] The crystals retrieved in this manner were used for AFM studies by mounting individual crystals according to the procedure described below.
Various proteins, poly-amino acids, and molecular mimics of L-cystine were examined as additives. The aforementioned procedure for hexagonal platelet crystallization was repeated. Following the 75 min cooling period, prior to any observable crystallization, the additive was added to the supersaturated L-cystine solution to the desired concentration. […] Crystallization without additive was performed in an identical manner for comparison using a control solution from the same batch. The mass yields of L-cystine crystals were obtained by dividing the mass of L-cystine crystals (collected from growth solution by filtration) by the mass of L-cystine added in the growth solution.
Additives chosen for these studies were various proteins, poly-amino acids, and molecular mimics of L-cystine (see Table 1). The above procedure for hexagonal platelet crystallization was repeated until completion of the 75 min cooling period, at which point 29.5 g of solution was transferred to a 100 mL beaker containing 0.5 g of separately prepared additive solution to yield net concentrations of 2 mg/L additive and 0.7 g/L L-cystine. Additive solutions were replaced with deionized water of equivalent volume for control measurements. […]
L-cystine bulk crystallization was investigated in the presence of various polymers, urinary constituents, fish antifreeze proteins (AFPs), and L-cystine derivatives (i.e. structural mimics of L-cystine), which were analyzed as possible growth inhibitors of hexagonal L-cystine. The potency of each additive was assessed by comparing the difference in crystal yield (Table 1), which is equal to the mass of crystals formed in the presence of 2 mg/L additive (isolated with […]) divided by the total mass of L-cystine (700 mg/L).

The nature of assay [2]: AFM step velocity and hillock imaging with L-cystine diesters under continuous flow. As for the experimental part: Atomic force microscopy was performed with a Digital Instruments (Santa Barbara, Calif.) Nanoscope Ma Multimode system. All measurements were performed in a cell designed to contain liquids for in situ imaging, including step velocity measurements. All measurements were performed in contact mode using Veeco NP_B Si3N4 tips on silicon nitride cantilevers with a spring constant of 0.12N/m (triangular, 196 μm length, 41 μm width). L-cystine crystals (hexagonal form) were transferred onto an AFM specimen disk coated with partially cured (1 hr) UV-curable optical cement (Type SK-9, EMS Acquisition Corp.) by gently pressing the disk against hexagonal platelets collected by filtration (Whatman Nuclepore membrane, 8 μm). The (001) faces of the hexagonal plates naturally aligned parallel with the specimen disk such that the velocity of the equivalent {100} steps could be measured readily by AFM. The partially cured polymer with the adhered crystals was cured completely by additional UV radiation (2 hrs) prior to analysis. The mounted L-cystine crystals were etched slightly by immersion in deionized water for 30 sec at 60° C. to remove amorphous deposits or impurities that may be present on the surface. Step velocities on the hexagonal L-cystine crystals were measured by AFM using a fluid cell containing an aqueous solution, supersaturated with L-cystine (2 mM), introduced to the cell via a syringe. Step velocities were determined by measuring the distance of the steps from a reference point, usually the dislocation core, in consecutive deflection images acquired at periodic intervals, ranging from 9-14 sec. Measurements were acquired under continuous flow of fresh solution in order to maintain constant supersaturation and additive concentration. […] The step velocities, which correspond to the crystal growth rates, were measured with and without inhibitor for each pair.

Marks after values point to notes of the source that are not given here.

As to `COC(=O)[C@@H](N)CSSC[C@H](N)C(=O)OC.Cl.Cl` [CDME, Cystine Dimethyl Ester Dihydrochloride], in assay [1] (2 mM L-cystine), the “CDME concentration sufficient to inhibit in vitro L-cystine crystallization” value is listed as about 25 mg/L. Further, the “Yield (%) = (collected mass by filtration, >11 μm)/(total mass added) × 100%” value is recorded as 13% in assay [1] and 13* % in assay [1] (listed as L-cystine dimethyl ester). Further, in assay [1] (25 mg/L CDME in supersaturated L-cystine, 8 μm filter pores), the “CDME amount sufficient to suppress crystallization” value came out at 3 wt %. Besides, the “mass yield of needles less than the yield of platelets in the absence of additive” value in assay [1] (CDME concentration approaching 5 mg/L) is listed as “more than 70%”. Also, the “CDME dosage that may be sufficient to inhibit in vivo L-cystine crystallization” value in assay [1] (extrapolated from 2 mM to physiological urine L-cystine (~0.4 mM)) is “less than 4 mg/L”. For the same compound, the “order of step roughening, corresponding to the trend in inhibition” value in assay [2] (0.015 mM inhibitor, 2 mM L-cystine) was “L-CDME>L-CDEE>L-CDIE>L-CDTE”. In assay [2] (0.015 M inhibitor), the “inhibition of step velocity compared among four L-cystine diesters” value is on record as “best inhibitor”.

The values above are taken from patent publication US9040261B2, “Compounds as L-cystine crystallization inhibitors and uses thereof” (NEW YORK UNIVERSITY, priority 2009, dated 2015).
